test system: Erysiphe graminis tritici (powdery mildew); assay: Greenhouse Test 1, foliar spray fungicide screen (POWD MDEW), host wheat; type: in vivo; conditions: disease control rating, 400 ppm (+++ at 100 ppm)

Compound | POWD MDEW
Brc1ccc(CCOc2ncnc3ccccc23)cc1 [Example 22, 4-[2-(4-bromophenyl)ethoxy]quinazoline] | +++ (+++ = 90-100% control at 100 ppm)
c1ccc2c(CCNc3ncnc4ccccc34)cccc2c1 [Example 23, N-[2-(1-naphthyl)ethyl]-4-quinazolinamine] | - (- = 0-19% control at 400 ppm)
c1ccc2cc(CCNc3nc(NCCc4ccc5ccccc5c4)c4ccccc4n3)ccc2c1 [Example 32, N,N'-bis[2-(2-naphthyl)ethyl]-2,4-quinazolinediamine] | - (- = 0-19% control at 400 ppm)
c1ccc(CCOc2ncnc3ccccc23)cc1 [Example 33, 4-(2-phenylethoxy)quinazoline] | ++ (++ = 90-100% control at 400 ppm)
Cc1cccc2ncnc(NCCc3ccc(Cl)cc3)c12 [Example 36, N-[2-(4-chlorophenyl)ethyl]-5-methyl-4-quinazolinamine] | - (- = 0-19% control at 400 ppm)
Clc1ccc(CCNc2ncnc3ccc(Br)cc23)cc1 [Example 37, N-[2-(4-chlorophenyl)ethyl]-6-bromo-4-quinazolinamine] | - (- = 0-19% control at 400 ppm)

test system: Pyricularia oryzae (rice blast); assay: not given; type: in vivo; conditions: disease control rating, foliar spray, host rice; 400 ppm (+++ at 100 ppm)

Compound | RICE BLAST
Brc1ccc(CCOc2ncnc3ccccc23)cc1 [Example 22, 4-[2-(4-bromophenyl)ethoxy]quinazoline] | +++ (+++ = 90-100% control at 100 ppm)
c1ccc2c(CCNc3ncnc4ccccc34)cccc2c1 [Example 23, N-[2-(1-naphthyl)ethyl]-4-quinazolinamine] | + (+ = 20-89% control at 400 ppm)
c1ccc2cc(CCNc3nc(NCCc4ccc5ccccc5c4)c4ccccc4n3)ccc2c1 [Example 32, N,N'-bis[2-(2-naphthyl)ethyl]-2,4-quinazolinediamine] | - (- = 0-19% control at 400 ppm)
c1ccc(CCOc2ncnc3ccccc23)cc1 [Example 33, 4-(2-phenylethoxy)quinazoline] | - (- = 0-19% control at 400 ppm)
Cc1cccc2ncnc(NCCc3ccc(Cl)cc3)c12 [Example 36, N-[2-(4-chlorophenyl)ethyl]-5-methyl-4-quinazolinamine] | + (+ = 20-89% control at 400 ppm)
Clc1ccc(CCNc2ncnc3ccc(Br)cc23)cc1 [Example 37, N-[2-(4-chlorophenyl)ethyl]-6-bromo-4-quinazolinamine] | - (- = 0-19% control at 400 ppm)

test system: Puccinia recondita tritici (leaf rust); assay: Greenhouse Test 1, foliar spray fungicide screen (LEAF RUST), host wheat; type: in vivo; conditions: disease control rating, 400 ppm (+++ at 100 ppm)

Compound | LEAF RUST
Brc1ccc(CCOc2ncnc3ccccc23)cc1 [Example 22, 4-[2-(4-bromophenyl)ethoxy]quinazoline] | +++ (+++ = 90-100% control at 100 ppm)
c1ccc2c(CCNc3ncnc4ccccc34)cccc2c1 [Example 23, N-[2-(1-naphthyl)ethyl]-4-quinazolinamine] | + (+ = 20-89% control at 400 ppm)
c1ccc2cc(CCNc3nc(NCCc4ccc5ccccc5c4)c4ccccc4n3)ccc2c1 [Example 32, N,N'-bis[2-(2-naphthyl)ethyl]-2,4-quinazolinediamine] | - (- = 0-19% control at 400 ppm)
c1ccc(CCOc2ncnc3ccccc23)cc1 [Example 33, 4-(2-phenylethoxy)quinazoline] | +++ (+++ = 90-100% control at 100 ppm)
Cc1cccc2ncnc(NCCc3ccc(Cl)cc3)c12 [Example 36, N-[2-(4-chlorophenyl)ethyl]-5-methyl-4-quinazolinamine] | - (- = 0-19% control at 400 ppm)
Clc1ccc(CCNc2ncnc3ccc(Br)cc23)cc1 [Example 37, N-[2-(4-chlorophenyl)ethyl]-6-bromo-4-quinazolinamine] | - (- = 0-19% control at 400 ppm)

test system: Botrytis cinerea (gray mold); assay: Greenhouse Test 1, foliar spray fungicide screen (GRAY MOLD), host grape berries; type: in vivo; conditions: disease control rating, 400 ppm (+++ at 100 ppm)

Compound | GRAY MOLD
Brc1ccc(CCOc2ncnc3ccccc23)cc1 [Example 22, 4-[2-(4-bromophenyl)ethoxy]quinazoline] | - (- = 0-19% control at 400 ppm)
c1ccc2c(CCNc3ncnc4ccccc34)cccc2c1 [Example 23, N-[2-(1-naphthyl)ethyl]-4-quinazolinamine] | - (- = 0-19% control at 400 ppm)
c1ccc2cc(CCNc3nc(NCCc4ccc5ccccc5c4)c4ccccc4n3)ccc2c1 [Example 32, N,N'-bis[2-(2-naphthyl)ethyl]-2,4-quinazolinediamine] | - (- = 0-19% control at 400 ppm)
c1ccc(CCOc2ncnc3ccccc23)cc1 [Example 33, 4-(2-phenylethoxy)quinazoline] | - (- = 0-19% control at 400 ppm)
Cc1cccc2ncnc(NCCc3ccc(Cl)cc3)c12 [Example 36, N-[2-(4-chlorophenyl)ethyl]-5-methyl-4-quinazolinamine] | - (- = 0-19% control at 400 ppm)
Clc1ccc(CCNc2ncnc3ccc(Br)cc23)cc1 [Example 37, N-[2-(4-chlorophenyl)ethyl]-6-bromo-4-quinazolinamine] | - (- = 0-19% control at 400 ppm)

test system: Pseudoperonospora cubensis (downy mildew); assay: Greenhouse Test 1, foliar spray fungicide screen (DOWN MDEW), host squash; type: in vivo; conditions: disease control rating, 400 ppm (+++ at 100 ppm)

Compound | DOWN MDEW
Brc1ccc(CCOc2ncnc3ccccc23)cc1 [Example 22, 4-[2-(4-bromophenyl)ethoxy]quinazoline] | +++ (+++ = 90-100% control at 100 ppm)
c1ccc2c(CCNc3ncnc4ccccc34)cccc2c1 [Example 23, N-[2-(1-naphthyl)ethyl]-4-quinazolinamine] | + (+ = 20-89% control at 400 ppm)
c1ccc2cc(CCNc3nc(NCCc4ccc5ccccc5c4)c4ccccc4n3)ccc2c1 [Example 32, N,N'-bis[2-(2-naphthyl)ethyl]-2,4-quinazolinediamine] | + (+ = 20-89% control at 400 ppm)
c1ccc(CCOc2ncnc3ccccc23)cc1 [Example 33, 4-(2-phenylethoxy)quinazoline] | ++ (++ = 90-100% control at 400 ppm)
Cc1cccc2ncnc(NCCc3ccc(Cl)cc3)c12 [Example 36, N-[2-(4-chlorophenyl)ethyl]-5-methyl-4-quinazolinamine] | + (+ = 20-89% control at 400 ppm)
Clc1ccc(CCNc2ncnc3ccc(Br)cc23)cc1 [Example 37, N-[2-(4-chlorophenyl)ethyl]-6-bromo-4-quinazolinamine] | - (- = 0-19% control at 400 ppm)

test system: Southern corn rootworm (Diabrotica undecimpuctata howardi Barber); assay: Mite/insect screen, soil treatment (CRW); type: in vivo; conditions: Diabrotica; percent mortality; soil treatment, CRW rate 12.00 ppm; read-out: CRW RESULTS %
Procedure: (§1) The compounds of Examples 1-203 were tested for miticidal and insecticidal activity in the following mite/insect screen.
(§2) Each test compound was formulated by dissolving the compound in acetone/alcohol (50:50) mixture containing 23 g of "TOXIMUL R" (sulfonate/nonionic emulsifier blend) and 13 g of "TOXIMUL S" (sulfonate/nonionic emulsifier blend) per liter. These mixtures were then diluted with water to give the indicated concentrations.
Activity on Southern corn rootworm (Diabrotica undecimpuctata howardi Barber) was evaluated by adding two ml of tap water, a presoaked corn seed, and 15 g of dry sandy soil to a one ounce plastic container. The soil was treated with 1 mL of test solution containing a pre-determined concentration of test compound. After six to 12 hours of drying, five 2-3 instar corn rootworm larvae were added to the individual cups, which were then capped and held at 23°C.
(§3) After standard exposure periods, percent mortality and phytotoxicity were evaluated. […]

Compound | mortality at 12 ppm [%]
c1ccc2c(CCNc3ncnc4ccccc34)cccc2c1 [Example 23, N-[2-(1-naphthyl)ethyl]-4-quinazolinamine] | 0
c1ccc2cc(CCNc3nc(NCCc4ccc5ccccc5c4)c4ccccc4n3)ccc2c1 [Example 32, N,N'-bis[2-(2-naphthyl)ethyl]-2,4-quinazolinediamine] | 0
c1ccc(CCOc2ncnc3ccccc23)cc1 [Example 33, 4-(2-phenylethoxy)quinazoline] | 0
Cc1cccc2ncnc(NCCc3ccc(Cl)cc3)c12 [Example 36, N-[2-(4-chlorophenyl)ethyl]-5-methyl-4-quinazolinamine] | 0
Clc1ccc(CCNc2ncnc3ccc(Br)cc23)cc1 [Example 37, N-[2-(4-chlorophenyl)ethyl]-6-bromo-4-quinazolinamine] | 0

same assay, conditions: Diabrotica; percent mortality; soil treatment, CRW rate 24.00 ppm; read-out: CRW RESULTS %

Compound | mortality at 24 ppm [%]
Brc1ccc(CCOc2ncnc3ccccc23)cc1 [Example 22, 4-[2-(4-bromophenyl)ethoxy]quinazoline] | 0
c1ccc2c(CCNc3ncnc4ccccc34)cccc2c1 [Example 23, N-[2-(1-naphthyl)ethyl]-4-quinazolinamine] | 0
c1ccc2cc(CCNc3nc(NCCc4ccc5ccccc5c4)c4ccccc4n3)ccc2c1 [Example 32, N,N'-bis[2-(2-naphthyl)ethyl]-2,4-quinazolinediamine] | 0
c1ccc(CCOc2ncnc3ccccc23)cc1 [Example 33, 4-(2-phenylethoxy)quinazoline] | 80
Cc1cccc2ncnc(NCCc3ccc(Cl)cc3)c12 [Example 36, N-[2-(4-chlorophenyl)ethyl]-5-methyl-4-quinazolinamine] | 0
Clc1ccc(CCNc2ncnc3ccc(Br)cc23)cc1 [Example 37, N-[2-(4-chlorophenyl)ethyl]-6-bromo-4-quinazolinamine] | 0

test system: southern armyworm (Spodopetra eridania Cramer); assay: Mite/insect screen, sprayed squash leaves (SAW); type: in vivo; conditions: Spodoptera eridania, percent mortality; spray rate 200 ppm; read-out: SAW RESULTS %
Procedure: as §1, §2
(§4) Other plants in the same treatment pot were left uninfested. The leaves were then sprayed with 5 ml of test solution using a DeVilbiss atomizing sprayer at 10 psi. Both surfaces of the leaves were covered until runoff, and then allowed to dry for one hour. Two uninfested leaves were then excised and placed into a Petri dish containing larval southern armyworm (Spodopetra eridania Cramer).
as §3

Compound | mortality at 200 ppm [%]
c1ccc2c(CCNc3ncnc4ccccc34)cccc2c1 [Example 23, N-[2-(1-naphthyl)ethyl]-4-quinazolinamine] | 0
c1ccc2cc(CCNc3nc(NCCc4ccc5ccccc5c4)c4ccccc4n3)ccc2c1 [Example 32, N,N'-bis[2-(2-naphthyl)ethyl]-2,4-quinazolinediamine] | 0
c1ccc(CCOc2ncnc3ccccc23)cc1 [Example 33, 4-(2-phenylethoxy)quinazoline] | 0
Cc1cccc2ncnc(NCCc3ccc(Cl)cc3)c12 [Example 36, N-[2-(4-chlorophenyl)ethyl]-5-methyl-4-quinazolinamine] | 0
Clc1ccc(CCNc2ncnc3ccc(Br)cc23)cc1 [Example 37, N-[2-(4-chlorophenyl)ethyl]-6-bromo-4-quinazolinamine] | 0

same assay, conditions: Spodoptera eridania, percent mortality; spray rate 400 ppm; read-out: SAW RESULTS %

Compound | mortality at 400 ppm [%]
Brc1ccc(CCOc2ncnc3ccccc23)cc1 [Example 22, 4-[2-(4-bromophenyl)ethoxy]quinazoline] | 0
c1ccc2c(CCNc3ncnc4ccccc34)cccc2c1 [Example 23, N-[2-(1-naphthyl)ethyl]-4-quinazolinamine] | 0
c1ccc2cc(CCNc3nc(NCCc4ccc5ccccc5c4)c4ccccc4n3)ccc2c1 [Example 32, N,N'-bis[2-(2-naphthyl)ethyl]-2,4-quinazolinediamine] | 0
c1ccc(CCOc2ncnc3ccccc23)cc1 [Example 33, 4-(2-phenylethoxy)quinazoline] | 0
Cc1cccc2ncnc(NCCc3ccc(Cl)cc3)c12 [Example 36, N-[2-(4-chlorophenyl)ethyl]-5-methyl-4-quinazolinamine] | 0
Clc1ccc(CCNc2ncnc3ccc(Br)cc23)cc1 [Example 37, N-[2-(4-chlorophenyl)ethyl]-6-bromo-4-quinazolinamine] | 0

test system: Twospotted spider mites (Tetranychus urticae Koch); assay: Mite/insect screen, sprayed squash cotyledons (SM); type: in vivo; conditions: Tetranychus urticae, percent mortality; spray rate 200 ppm; read-out: SM RESULTS %
Procedure: as §1, §2, §4, §3

Compound | mortality at 200 ppm [%]
c1ccc2c(CCNc3ncnc4ccccc34)cccc2c1 [Example 23, N-[2-(1-naphthyl)ethyl]-4-quinazolinamine] | 0
c1ccc2cc(CCNc3nc(NCCc4ccc5ccccc5c4)c4ccccc4n3)ccc2c1 [Example 32, N,N'-bis[2-(2-naphthyl)ethyl]-2,4-quinazolinediamine] | 0
c1ccc(CCOc2ncnc3ccccc23)cc1 [Example 33, 4-(2-phenylethoxy)quinazoline] | 50
Cc1cccc2ncnc(NCCc3ccc(Cl)cc3)c12 [Example 36, N-[2-(4-chlorophenyl)ethyl]-5-methyl-4-quinazolinamine] | 0
Clc1ccc(CCNc2ncnc3ccc(Br)cc23)cc1 [Example 37, N-[2-(4-chlorophenyl)ethyl]-6-bromo-4-quinazolinamine] | 0

same assay, conditions: Tetranychus urticae, percent mortality; spray rate 400 ppm; read-out: SM RESULTS %

Compound | mortality at 400 ppm [%]
Brc1ccc(CCOc2ncnc3ccccc23)cc1 [Example 22, 4-[2-(4-bromophenyl)ethoxy]quinazoline] | 20
c1ccc2c(CCNc3ncnc4ccccc34)cccc2c1 [Example 23, N-[2-(1-naphthyl)ethyl]-4-quinazolinamine] | 0
c1ccc2cc(CCNc3nc(NCCc4ccc5ccccc5c4)c4ccccc4n3)ccc2c1 [Example 32, N,N'-bis[2-(2-naphthyl)ethyl]-2,4-quinazolinediamine] | 0
c1ccc(CCOc2ncnc3ccccc23)cc1 [Example 33, 4-(2-phenylethoxy)quinazoline] | 80
Cc1cccc2ncnc(NCCc3ccc(Cl)cc3)c12 [Example 36, N-[2-(4-chlorophenyl)ethyl]-5-methyl-4-quinazolinamine] | 0
Clc1ccc(CCNc2ncnc3ccc(Br)cc23)cc1 [Example 37, N-[2-(4-chlorophenyl)ethyl]-6-bromo-4-quinazolinamine] | 0

test system: melon aphids (Aphis gossypii Glover); assay: Mite/insect screen, sprayed squash cotyledons (MA); type: in vivo; conditions: Aphis gossypii, percent mortality; spray rate 200 ppm; read-out: MA RESULTS %
Procedure: as §1, §2, §4, §3

Compound | mortality at 200 ppm [%]
c1ccc2c(CCNc3ncnc4ccccc34)cccc2c1 [Example 23, N-[2-(1-naphthyl)ethyl]-4-quinazolinamine] | 0
c1ccc2cc(CCNc3nc(NCCc4ccc5ccccc5c4)c4ccccc4n3)ccc2c1 [Example 32, N,N'-bis[2-(2-naphthyl)ethyl]-2,4-quinazolinediamine] | 0
c1ccc(CCOc2ncnc3ccccc23)cc1 [Example 33, 4-(2-phenylethoxy)quinazoline] | 80
Cc1cccc2ncnc(NCCc3ccc(Cl)cc3)c12 [Example 36, N-[2-(4-chlorophenyl)ethyl]-5-methyl-4-quinazolinamine] | 0
Clc1ccc(CCNc2ncnc3ccc(Br)cc23)cc1 [Example 37, N-[2-(4-chlorophenyl)ethyl]-6-bromo-4-quinazolinamine] | 0

same assay, conditions: Aphis gossypii, percent mortality; spray rate 400 ppm; read-out: MA RESULTS %

Compound | mortality at 400 ppm [%]
Brc1ccc(CCOc2ncnc3ccccc23)cc1 [Example 22, 4-[2-(4-bromophenyl)ethoxy]quinazoline] | 80
c1ccc2c(CCNc3ncnc4ccccc34)cccc2c1 [Example 23, N-[2-(1-naphthyl)ethyl]-4-quinazolinamine] | 0
c1ccc2cc(CCNc3nc(NCCc4ccc5ccccc5c4)c4ccccc4n3)ccc2c1 [Example 32, N,N'-bis[2-(2-naphthyl)ethyl]-2,4-quinazolinediamine] | 0
c1ccc(CCOc2ncnc3ccccc23)cc1 [Example 33, 4-(2-phenylethoxy)quinazoline] | 100
Cc1cccc2ncnc(NCCc3ccc(Cl)cc3)c12 [Example 36, N-[2-(4-chlorophenyl)ethyl]-5-methyl-4-quinazolinamine] | 0
Clc1ccc(CCNc2ncnc3ccc(Br)cc23)cc1 [Example 37, N-[2-(4-chlorophenyl)ethyl]-6-bromo-4-quinazolinamine] | 0
